{"source": "PubChem BioAssay AID1963979", "about": "(Molecular Pharmacology Branch, DTP, NCI, 2024)", "tested_on": "361931-004-R-J1-PDC multicell spheroid viability", "experiment": "Anticancer human tumor 361931-004-R-J1-PDC patient-derived colon adenocarcinoma cell line growth inhibition [PI3K]", "conditions": "for pIC50: curve of first compound; for viability, T/C: stronger effect = lower value", "in_short": "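We assembled tumor spheroids that included a stromal compartment of HUVEC and MSCs, then exposed them to targeted agents alone and together with PI3K pathway inhibitors. Concentration series descended by half-log from clinically achievable Cmax levels. Viability served as the endpoint.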", "key": {"[1]": {"conditions": "second compound 0.00316 µM, first compound 0.0316 µM"}, "[2]": {"conditions": "second compound 0.00316 µM, first compound 0.1 µM"}, "[3]": {"conditions": "second compound 0.01 µM, first compound 0.0316 µM"}, "[4]": {"conditions": "second compound 0.01 µM, first compound 0.1 µM"}, "[5]": {"conditions": "second compound 0.0316 µM, first compound 0.0316 µM"}, "[6]": {"conditions": "second compound 0.0316 µM, first compound 0.1 µM"}, "[7]": {"conditions": "second compound 0.1 µM, first compound 0.0316 µM"}, "[8]": {"conditions": "second compound 0.1 µM, first compound 0.1 µM"}, "[9]": {"conditions": "second compound 0.316 µM, first compound 0.0316 µM"}, "[10]": {"conditions": "second compound 0.316 µM, first compound 0.1 µM"}, "[11]": {"conditions": "second compound 1 µM, first compound 0.0316 µM"}, "[12]": {"conditions": "second compound 1 µM, first compound 0.1 µM"}}, "note": "pIC50: −log10 of the molar value.", "data": [{"molecule": "CC(C)n1nc(-c2ccc3oc(N)nc3c2)c2c(N)ncnc21", "note": "+ COc1c(OCCCN2CCOCC2)ccc2c3n(c(=NC(=O)c4cnc(N)nc4)nc12)CCN3;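 further: spheroids exposed to agents for seven days before readout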", "values": [{"measurement": "pIC50", "setting": "second compound 0.00316 µM", "value": "< 7.00"}, {"measurement": "pIC50", "setting": "second compound 0.01 µM", "value": "< 7.00"}, {"measurement": "pIC50", "setting": "second compound 0.0316 µM", "value": 7.11}, {"measurement": "pIC50", "setting": "second compound 0.1 µM", "value": 7.29}, {"measurement": "pIC50", "setting": "second compound 0.316 µM", "value": 8.35}, {"measurement": "pIC50", "setting": "second compound 1 µM", "value": "> 9.50"}, {"measurement": "viability, T/C", "setting": "second compound 0.00316 µM, first compound 0.000316 µM", "value": 99.9, "unit": "%"}, {"measurement": "viability, T/C", "setting": "second compound 0.00316 µM, first compound 0.001 µM", "value": 108, "unit": "%"}, {"measurement": "viability, T/C", "setting": "second compound 0.00316 µM, first compound 0.00316 µM", "value": 101, "unit": "%"}, {"measurement": "viability, T/C", "setting": "second compound 0.00316 µM, first compound 0.01 µM", "value": 106, "unit": "%"}, {"measurement": "viability, T/C", "setting": "[1]", "value": 108, "unit": "%"}, {"measurement": "viability, T/C", "setting": "[2]", "value": 77.5, "unit": "%"}, {"measurement": "viability, T/C", "setting": "second compound 0.01 µM, first compound 0.000316 µM", "value": 106, "unit": "%"}, {"measurement": "viability, T/C", "setting": "second compound 0.01 µM, first compound 0.001 µM", "value": 102, "unit": "%"}, {"measurement": "viability, T/C", "setting": "second compound 0.01 µM, first compound 0.00316 µM", "value": 99.3, "unit": "%"}, {"measurement": "viability, T/C", "setting": "second compound 0.01 µM, first compound 0.01 µM", "value": 100, "unit": "%"}, {"measurement": "viability, T/C", "setting": "[3]", "value": 99.2, "unit": "%"}, {"measurement": "viability, T/C", "setting": "[4]", "value": 57.6, "unit": "%"}, {"measurement": "viability, T/C", "setting": "second compound 0.0316 µM, first compound 0.000316 µM", "value": 94.1, "unit": "%"}, {"measurement": "viability, T/C", "setting": "second compound 0.0316 µM, first compound 0.001 µM", "value": 98.7, "unit": "%"}, {"measurement": "viability, T/C", "setting": "second compound 0.0316 µM, first compound 0.00316 µM", "value": 89.2, "unit": "%"}, {"measurement": "viability, T/C", "setting": "second compound 0.0316 µM, first compound 0.01 µM", "value": 94.2, "unit": "%"}, {"measurement": "viability, T/C", "setting": "[5]", "value": 85.6, "unit": "%"}, {"measurement": "viability, T/C", "setting": "[6]", "value": 40.4, "unit": "%"}, {"measurement": "viability, T/C", "setting": "second compound 0.1 µM, first compound 0.000316 µM", "value": 80.8, "unit": "%"}, {"measurement": "viability, T/C", "setting": "second compound 0.1 µM, first compound 0.001 µM", "value": 85.5, "unit": "%"}, {"measurement": "viability, T/C", "setting": "second compound 0.1 µM, first compound 0.00316 µM", "value": 79, "unit": "%"}, {"measurement": "viability, T/C", "setting": "second compound 0.1 µM, first compound 0.01 µM", "value": 72.8, "unit": "%"}, {"measurement": "viability, T/C", "setting": "[7]", "value": 62.9, "unit": "%"}, {"measurement": "viability, T/C", "setting": "[8]", "value": 34.1, "unit": "%"}, {"measurement": "viability, T/C", "setting": "second compound 0.316 µM, first compound 0.000316 µM", "value": 64.7, "unit": "%"}, {"measurement": "viability, T/C", "setting": "second compound 0.316 µM, first compound 0.001 µM", "value": 56.3, "unit": "%"}, {"measurement": "viability, T/C", "setting": "second compound 0.316 µM, first compound 0.00316 µM", "value": 54.2, "unit": "%"}, {"measurement": "viability, T/C", "setting": "second compound 0.316 µM, first compound 0.01 µM", "value": 43.9, "unit": "%"}, {"measurement": "viability, T/C", "setting": "[9]", "value": 35.5, "unit": "%"}, {"measurement": "viability, T/C", "setting": "[10]", "value": 22.4, "unit": "%"}, {"measurement": "viability, T/C", "setting": "second compound 1 µM, first compound 0.000316 µM", "value": 20.8, "unit": "%"}, {"measurement": "viability, T/C", "setting": "second compound 1 µM, first compound 0.001 µM", "value": 20.7, "unit": "%"}, {"measurement": "viability, T/C", "setting": "second compound 1 µM, first compound 0.00316 µM", "value": 22.3, "unit": "%"}, {"measurement": "viability, T/C", "setting": "second compound 1 µM, first compound 0.01 µM", "value": 20.9, "unit": "%"}, {"measurement": "viability, T/C", "setting": "[11]", "value": 20.2, "unit": "%"}, {"measurement": "viability, T/C", "setting": "[12]", "value": 10.6, "unit": "%"}]}, {"molecule": "CC1(C)CCC(CN2CCN(c3ccc(C(=O)NS(=O)(=O)c4ccc(NCC5CCOCC5)c([N+](=O)[O-])c4)c(Oc4cnc5[nH]ccc5c4)c3)CC2)=C(c2ccc(Cl)cc2)C1", "note": "+ COc1c(OCCCN2CCOCC2)ccc2c3n(c(=NC(=O)c4cnc(N)nc4)nc12)CCN3", "values": [{"measurement": "pIC50", "setting": "second compound 0.00316 µM", "value": 5.25}, {"measurement": "pIC50", "setting": "second compound 0.01 µM", "value": 5.25}, {"measurement": "pIC50", "setting": "second compound 0.0316 µM", "value": 5.31}, {"measurement": "pIC50", "setting": "second compound 0.1 µM", "value": 5.46}, {"measurement": "pIC50", "setting": "second compound 0.316 µM", "value": 6.26}, {"measurement": "pIC50", "setting": "second compound 1 µM", "value": "> 7.50"}, {"measurement": "viability, T/C", "setting": "[1]", "value": 92.3, "unit": "%"}, {"measurement": "viability, T/C", "setting": "[2]", "value": 98.1, "unit": "%"}, {"measurement": "viability, T/C", "setting": "second compound 0.00316 µM, first compound 0.316 µM", "value": 108, "unit": "%"}, {"measurement": "viability, T/C", "setting": "second compound 0.00316 µM, first compound 1 µM", "value": 104, "unit": "%"}, {"measurement": "viability, T/C", "setting": "second compound 0.00316 µM, first compound 3.16 µM", "value": 95.4, "unit": "%"}, {"measurement": "viability, T/C", "setting": "second compound 0.00316 µM, first compound 10 µM", "value": 4.89, "unit": "%"}, {"measurement": "viability, T/C", "setting": "[3]", "value": 106, "unit": "%"}, {"measurement": "viability, T/C", "setting": "[4]", "value": 98.7, "unit": "%"}, {"measurement": "viability, T/C", "setting": "second compound 0.01 µM, first compound 0.316 µM", "value": 104, "unit": "%"}, {"measurement": "viability, T/C", "setting": "second compound 0.01 µM, first compound 1 µM", "value": 101, "unit": "%"}, {"measurement": "viability, T/C", "setting": "second compound 0.01 µM, first compound 3.16 µM", "value": 94.6, "unit": "%"}, {"measurement": "viability, T/C", "setting": "second compound 0.01 µM, first compound 10 µM", "value": 3.83, "unit": "%"}, {"measurement": "viability, T/C", "setting": "[5]", "value": 96, "unit": "%"}, {"measurement": "viability, T/C", "setting": "[6]", "value": 94.9, "unit": "%"}, {"measurement": "viability, T/C", "setting": "second compound 0.0316 µM, first compound 0.316 µM", "value": 96.2, "unit": "%"}, {"measurement": "viability, T/C", "setting": "second compound 0.0316 µM, first compound 1 µM", "value": 90.4, "unit": "%"}, {"measurement": "viability, T/C", "setting": "second compound 0.0316 µM, first compound 3.16 µM", "value": 78.6, "unit": "%"}, {"measurement": "viability, T/C", "setting": "second compound 0.0316 µM, first compound 10 µM", "value": 3.08, "unit": "%"}, {"measurement": "viability, T/C", "setting": "[7]", "value": 82.5, "unit": "%"}, {"measurement": "viability, T/C", "setting": "[8]", "value": 76.6, "unit": "%"}, {"measurement": "viability, T/C", "setting": "second compound 0.1 µM, first compound 0.316 µM", "value": 76.8, "unit": "%"}, {"measurement": "viability, T/C", "setting": "second compound 0.1 µM, first compound 1 µM", "value": 81, "unit": "%"}, {"measurement": "viability, T/C", "setting": "second compound 0.1 µM, first compound 3.16 µM", "value": 54.5, "unit": "%"}, {"measurement": "viability, T/C", "setting": "second compound 0.1 µM, first compound 10 µM", "value": 1.89, "unit": "%"}, {"measurement": "viability, T/C", "setting": "[9]", "value": 53, "unit": "%"}, {"measurement": "viability, T/C", "setting": "[10]", "value": 51.6, "unit": "%"}, {"measurement": "viability, T/C", "setting": "second compound 0.316 µM, first compound 0.316 µM", "value": 51.4, "unit": "%"}, {"measurement": "viability, T/C", "setting": "second compound 0.316 µM, first compound 1 µM", "value": 48.6, "unit": "%"}, {"measurement": "viability, T/C", "setting": "second compound 0.316 µM, first compound 3.16 µM", "value": 36.4, "unit": "%"}, {"measurement": "viability, T/C", "setting": "second compound 0.316 µM, first compound 10 µM", "value": 2.15, "unit": "%"}, {"measurement": "viability, T/C", "setting": "[11]", "value": 25.9, "unit": "%"}, {"measurement": "viability, T/C", "setting": "[12]", "value": 25.6, "unit": "%"}, {"measurement": "viability, T/C", "setting": "second compound 1 µM, first compound 0.316 µM", "value": 21.4, "unit": "%"}, {"measurement": "viability, T/C", "setting": "second compound 1 µM, first compound 1 µM", "value": 25.6, "unit": "%"}, {"measurement": "viability, T/C", "setting": "second compound 1 µM, first compound 3.16 µM", "value": 19.8, "unit": "%"}, {"measurement": "viability, T/C", "setting": "second compound 1 µM, first compound 10 µM", "value": 2.71, "unit": "%"}]}]}
